Experimental findings from patent US20250250230A1, “HETEROCYCLIC COMPOUND” (TAKEDA PHARMACEUTICAL COMPANY LIMITED, priority 2022, published 2025) are described below.

The target in this assay is T1, human orexin type 2 receptor (Homo sapiens, UniProt O43614).
T1 construct: expressed in transfected cells
T1 sequence (O43614 1-444): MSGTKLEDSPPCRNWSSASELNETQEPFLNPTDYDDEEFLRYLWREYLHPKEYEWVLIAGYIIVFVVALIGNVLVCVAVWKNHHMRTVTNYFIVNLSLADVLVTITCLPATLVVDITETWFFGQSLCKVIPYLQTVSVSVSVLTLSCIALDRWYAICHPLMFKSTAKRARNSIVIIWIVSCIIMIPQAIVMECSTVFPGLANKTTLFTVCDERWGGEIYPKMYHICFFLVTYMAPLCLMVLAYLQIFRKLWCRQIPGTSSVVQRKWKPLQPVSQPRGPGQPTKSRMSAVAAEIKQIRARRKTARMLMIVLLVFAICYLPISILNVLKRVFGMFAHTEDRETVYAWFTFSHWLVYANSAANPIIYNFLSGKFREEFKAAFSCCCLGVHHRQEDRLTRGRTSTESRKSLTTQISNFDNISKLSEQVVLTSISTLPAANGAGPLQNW
The experiment in a line: Measurement of orexin type 2 receptor agonist activity (calcium fluorescence, Fluo-4 AM, FDSS). Type of assay: cell-based. The following applies: test compound 3 μM; CHO cells expressing human OX2 receptor; DMSO = 0%, orexin A (human) = 100%. An outline of the steps: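 Agonist response scaled between vehicle (0%) and human orexin A at 10 nM final (100%), from 2-min kinetic Fluo-4 fluorescence reads. Stable hOX2R CHO-K1 clone, dye-loaded in HBSS/20 mM HEPES/0.1% BSA with 1.25 mM probenecid before compound addition.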
Take `CC1(C(=O)N2CC[C@H]2CNS(C)(=O)=O)CC1(F)c1ccccc1-c1c(F)cccc1F` (stereo partly drawn) [Example 356, N-({(2S)-1-[(1R,2S)-2-(2′,6′-difluoro[1,1′-biphenyl]-2-yl)-2-fluoro-1-methylcyclopropane-1-carbonyl]azetidin-2-yl}methyl)methanesulfonamide, or N-({(2S)-1-[(1S,2R)-2-(2′,6′-difluoro[1,1′-biphenyl]-2-yl)-2-fluoro-1-methylcyclopropane-1-carbonyl]azetidin-2-yl}methyl)methanesulfonamide]: the “OX2R agonist activity (3 μM, %)” value was determined as 84%. `C[C@@H]1CN(C(=O)[C@@H]2C[C@@]2(F)c2ccccc2-c2c(F)cccc2F)[C@H]1CNS(C)(=O)=O` [Example 357, N-({(2R,3R)-1-[(1S,2S)-2-(2′,6′-difluoro[1,1′-biphenyl]-2-yl)-2-fluorocyclopropane-1-carbonyl]-3-methylazetidin-2-yl}methyl)methanesulfonamide]: the “OX2R agonist activity (3 μM, %)” value is listed as 96%. Regarding `CS(=O)(=O)NCC12CC(C1)N(C(=O)[C@@H]1C[C@@]1(F)c1ccccc1-c1c(F)cccc1F)C2` [Example 359, N-({2-[(1S,2S)-2-(2′,6′-difluoro[1,1′-biphenyl]-2-yl)-2-fluorocyclopropane-1-carbonyl]-2-azabicyclo[2.1.1]hexan-4-yl}methyl)methanesulfonamide], the “OX2R agonist activity (3 μM, %)” value is given as 94%. Regarding `CCS(=O)(=O)NC[C@@H]1[C@H](C)CN1C(=O)[C@@H]1C[C@@]1(F)c1ccccc1-c1c(F)cccc1F` [Example 360, N-({(2S,3R)-1-[(1S,2S)-2-(2′,6′-difluoro[1,1′-biphenyl]-2-yl)-2-fluorocyclopropane-1-carbonyl]-3-methylazetidin-2-yl}methyl)ethanesulfonamide], the “OX2R agonist activity (3 μM, %)” value was found to be 103%. As for `CCS(=O)(=O)NC(C)[C@H]1CCN1C(=O)[C@@H]1C[C@H]1c1ccccc1-c1c(F)cccc1F` (stereo partly drawn) [Example 361, N-[(1R)-1-{(2R)-1-[(1R,2R)-2-(2′,6′-difluoro[1,1′-biphenyl]-2-yl)cyclopropane-1-carbonyl]azetidin-2-yl}ethyl]ethanesulfonamide, or N-[(1S)-1-{(2R)-1-[(1R,2R)-2-(2′,6′-difluoro[1,1′-biphenyl]-2-yl)cyclopropane-1-carbonyl]azetidin-2-yl}ethyl]ethanesulfonamide], the “OX2R agonist activity (3 μM, %)” value is recorded as 90%.

As for `CCS(=O)(=O)NC[C@@H]1CCN1C(=O)[C@@H]1C[C@H]1c1ccccc1-c1c(F)cccc1F` [Example 362, N-({(2S)-1-[(1R,2R)-2-(2′,6′-difluoro[1,1′-biphenyl]-2-yl)cyclopropane-1-carbonyl]azetidin-2-yl}methyl)ethanesulfonamide], the “OX2R agonist activity (3 μM, %)” value is 89%.

With `CCS(=O)(=O)NC(C)[C@@H]1CCN1C(=O)[C@@H]1C[C@@]1(F)c1ccccc1-c1c(F)cccc1F` (stereo partly drawn) [Example 363, N-[(1R)-1-{(2S)-1-[(1S,2S)-2-(2′,6′-difluoro[1,1′-biphenyl]-2-yl)-2-fluorocyclopropane-1-carbonyl]azetidin-2-yl}ethyl]ethanesulfonamide, or N-[(1S)-1-{(2S)-1-[(1S,2S)-2-(2′,6′-difluoro[1,1′-biphenyl]-2-yl)-2-fluorocyclopropane-1-carbonyl]azetidin-2-yl}ethyl]ethanesulfonamide], the “OX2R agonist activity (3 μM, %)” value was 98%. With `C[C@H]1CN(C(=O)[C@@H]2C[C@@]2(F)c2ccccc2-c2c(F)cccc2F)C[C@@H](CNS(C)(=O)=O)O1` [Example 364, N-({(2S,6S)-4-[(1S,2S)-2-(2′,6′-difluoro[1,1′-biphenyl]-2-yl)-2-fluorocyclopropane-1-carbonyl]-6-methylmorpholin-2-yl}methyl)methanesulfonamide], the “OX2R agonist activity (3 μM, %)” value is listed as 88%.

For the compound `CS(=O)(=O)NC[C@@H]1CCN1C(=O)C1(CO)CC1c1ccccc1-c1c(F)cccc1F` (stereo partly drawn) [Example 365, N-({(2S)-1-[(1R,2S)-2-(2′,6′-difluoro[1,1′-biphenyl]-2-yl)-1-(hydroxymethyl)cyclopropane-1-carbonyl]azetidin-2-yl}methyl)methanesulfonamide, or N-({(2S)-1-[(1S,2R)-2-(2′,6′-difluoro[1,1′-biphenyl]-2-yl)-1-(hydroxymethyl)cyclopropane-1-carbonyl]azetidin-2-yl}methyl)methanesulfonamide], the “OX2R agonist activity (3 μM, %)” value was 103%. With `CS(=O)(=O)NC[C@@H]1CCN1C(=O)C1CC1c1c(-c2c(F)cccc2F)csc1F` (stereo partly drawn) [Example 367, N-{[(2S)-1-{(1R,2R)-2-[4-(2,6-difluorophenyl)-2-fluorothiophen-3-yl]cyclopropane-1-carbonyl}azetidin-2-yl]methyl}methanesulfonamide, or N-{[(2S)-1-{(1S,2S)-2-[4-(2,6-difluorophenyl)-2-fluorothiophen-3-yl]cyclopropane-1-carbonyl}azetidin-2-yl]methyl}methanesulfonamide], the “OX2R agonist activity (3 μM, %)” value is recorded as 93%. Take `CS(=O)(=O)N[C@H]1CCN(C(=O)C2CC2c2c(-c3c(F)cccc3F)csc2F)C1` (stereo partly drawn) [Example 368, N-[(3S)-1-{(1R,2R)-2-[4-(2,6-difluorophenyl)-2-fluorothiophen-3-yl]cyclopropane-1-carbonyl}pyrrolidin-3-yl]methanesulfonamide, or N-[(3S)-1-{(1S,2S)-2-[4-(2,6-difluorophenyl)-2-fluorothiophen-3-yl]cyclopropane-1-carbonyl}pyrrolidin-3-yl]methanesulfonamide]: the “OX2R agonist activity (3 μM, %)” value was 97%.

Turning to `CS(=O)(=O)NC[C@H]1CCN1C(=O)[C@@H]1C[C@H]1c1ccccc1-c1c(F)cccc1F` [Example 370, N-({(2R)-1-[(1R,2R)-2-(2′,6′-difluoro[1,1′-biphenyl]-2-yl)cyclopropane-1-carbonyl]azetidin-2-yl}methyl)methanesulfonamide], the “OX2R agonist activity (3 μM, %)” value was 84%.

As for `CS(=O)(=O)NC[C@H]1CCN1C(=O)[C@@H]1C[C@@]1(F)c1ccccc1-c1c(F)cccc1F` [Example 371, N-({(2R)-1-[(1S,2S)-2-(2′,6′-difluoro[1,1′-biphenyl]-2-yl)-2-fluorocyclopropane-1-carbonyl]azetidin-2-yl}methyl)methanesulfonamide], the “OX2R agonist activity (3 μM, %)” value is 103%.

For the compound `C[C@@H]1CN(C(=O)[C@@H]2C[C@@]2(F)c2ccccc2-c2c(F)cccc2F)C[C@@H](CNS(C)(=O)=O)O1` [Example 372, N-({(2S,6R)-4-[(1S,2S)-2-(2′,6′-difluoro[1,1′-biphenyl]-2-yl)-2-fluorocyclopropane-1-carbonyl]-6-methylmorpholin-2-yl}methyl)methanesulfonamide], the “OX2R agonist activity (3 μM, %)” value came out at 95%. Regarding `COCC1(NS(C)(=O)=O)CCN(C(=O)[C@@H]2C[C@@]2(F)c2ccccc2-c2c(F)cccc2F)C1` (stereo partly drawn) [Example 373, N-[(3R)-1-[(1S,2S)-2-(2′,6′-difluoro[1,1′-biphenyl]-2-yl)-2-fluorocyclopropane-1-carbonyl]-3-(methoxymethyl)pyrrolidin-3-yl]methanesulfonamide, or N-[(3S)-1-[(1S,2S)-2-(2′,6′-difluoro[1,1′-biphenyl]-2-yl)-2-fluorocyclopropane-1-carbonyl]-3-(methoxymethyl)pyrrolidin-3-yl]methanesulfonamide], the “OX2R agonist activity (3 μM, %)” value is 95%. For `CCS(=O)(=O)NC[C@@H]1[C@H](O)CN1C(=O)[C@@H]1C[C@@]1(F)c1ccccc1-c1c(F)cccc1F` [Example 374, N-({(2R,3R)-1-[(1S,2S)-2-(2′,6′-difluoro[1,1′-biphenyl]-2-yl)-2-fluorocyclopropane-1-carbonyl]-3-hydroxyazetidin-2-yl}methyl)ethanesulfonamide], the “OX2R agonist activity (3 μM, %)” value came out at 98%. For the compound `CC1(NS(C)(=O)=O)CN(C(=O)[C@@H]2C[C@@]2(F)c2ccccc2-c2c(F)cccc2F)CC1(F)F` (stereo partly drawn) [Example 375, N-{(3R)-1-[(1S,2S)-2-(2′,6′-difluoro[1,1′-biphenyl]-2-yl)-2-fluorocyclopropane-1-carbonyl]-4,4-difluoro-3-methylpyrrolidin-3-yl}methanesulfonamide, or N-{(3S)-1-[(1S,2S)-2-(2′,6′-difluoro[1,1′-biphenyl]-2-yl)-2-fluorocyclopropane-1-carbonyl]-4,4-difluoro-3-methylpyrrolidin-3-yl}methanesulfonamide], the “OX2R agonist activity (3 μM, %)” value is recorded as 92%. On to `CS(=O)(=O)NC1C2CN(C(=O)[C@@H]3C[C@@]3(F)c3ccccc3-c3c(F)cccc3F)CC2CC1(F)F` (stereo partly drawn) [Example 377, N-{(3aR,4S,6aS)-2-[(1S,2S)-2-(2′,6′-difluoro[1,1′-biphenyl]-2-yl)-2-fluorocyclopropane-1-carbonyl]-5,5-difluorooctahydrocyclopenta[c]pyrrol-4-yl}methanesulfonamide, or N-{(3aS,4R,6aR)-2-[(1S,2S)-2-(2′,6′-difluoro[1,1′-biphenyl]-2-yl)-2-fluorocyclopropane-1-carbonyl]-5,5-difluorooctahydrocyclopenta[c]pyrrol-4-yl}methanesulfonamide], for which the “OX2R agonist activity (3 μM, %)” value worked out at 93%.
